Patent publication US20040214839A1, “Therapeutic methods” (priority 2001, published 2004)
pIC50: −log10 of the molar value.

Legend:
[1] = in vivo; cited from earlier work
type IV PDE = details: cited from earlier work; for pIC50: type IV PDE inhibitor
[2] = system: phosphodiesterase IV-b mRNA; assay: Phosphodiesterase IV b mRNA in U937 cells (Taqman); assay type: cell-based, human; details: four hours of incubation; PGE 1×10^-6, 19-hydroxy PGE2 5×10^-6; without inhibitor
Description: After the incubation (20 hours), cells were pelleted and the mRNA was extracted with Tri-reagent (Sigma, Poole, UK). Total RNA was obtained by addition of chloroform and subsequent isopropanol precipitation. RNA was reverse transcribed with reverse transcriptase (Applied Biosystems) and random hexamers (Applied Biosystems). Probes and primers for IL-10 and IL-12 (p35) were designed using Primer Express (Applied Biosystems) and were as follows:
Template was amplified in a Taqman 7700 machine for 40 cycles using FAM/TAMRA dyes on the probe. The Applied Biosystems kit was used to amplify and detect ribosomal (18S)RNA (using VIC/TAMRA dyes) as an internal control in the same reaction tube. After 40 cycles the Ct (related to cycle number at which signal appears) for the FAM and the 18S (VIC) were recorded and […] relative quantitation was achieved using the formula 2^−ΔΔct where Δ refers to the difference between the FAM and VIC signal related to an standard comparator included in each run.
The mRNA for phosphodiesterase IV-b was measured as described in Example 2 above mRNA was extracted after four hours of incubation. The concentration of the PGE was 1×10^−6 and that of the 19-hydroxy PGE2 was 5×10^−6. The following primers and Taqman probe were used for quantitation of PDE IV b mRNA.

[3] = system: IL-10 release from U937 cells; assay: IL-10 release from U937 cells (ELISA); assay type: cell-based, human; details: for stimulation of IL-10 in the presence of a type IV selective PDE inhibitor: with vs without type IV selective PDE inhibitor (rolipram)
Description: U 937 cells were grown in RPMI (PAA Laboratories) medium with 10% fetal calf serum added (PAA Laboratories). 2×10^6 cells per flask were treated with prostaglandin E2 at 10^−6 Molar or with Rolipram (4×10^−6) for 24 hours. Medium was removed at […] and analysed by ELISA. A capture antibody (Pharmingen) was coated onto 96 well plates and culture medium was added each well. A standard curve was created with recombinant IL-10 protein. After incubation and washing, a biotin labelled monoclonal antibody (Pharmingen) was added and following incubation and washing, peroxidase labelled streptavidin was added. After washing a tetramethyl benzidine substrate was added and colour developed in proportion to IL-10 in the original sample/standard. Colour was read using a plate photometer (Labsystems, Multiskan). Mean concentrations (N=3) in controls with no lipopolysaccharide (LPS) were 38.2 pg/ml and in the presence of LPS (100 nM) they were 43.9 […].
The effect of PGE1, PGE2, 19 hydroxy PGE1 and 19 hydroxy PGE2 on the stimulation of IL-10 in the presence and absence of rolipram was investigated as described above in Example 2. IL-10 levels were measured using an ELISA assay (R&D Ltd, Oxford). Measurements were taken in accordance with the manufacturer's instructions.

| Molecule | pIC50 (type IV PDE) | PDE activity (phosphodiesterase IV b mRNA) after prostaglandin application [2] | stimulation of IL-10 in the presence of a type IV selective PDE inhibitor [3] | further results |
| --- | --- | --- | --- | --- |
| CCCCC(C)(O)CC=C[C@H]1[C@H](O)CC(=O)[C@@H]1CCCCCCC(=O)OC (mixture of isomers) [misoprostol, (±) methyl 11α, 16-dihydroxy-16-methyl-9-oxoprost-13-enoate] | – | – | – | hypotension [1]: does not cause hypotension |
| COc1ccc(C2CNC(=O)C2)cc1OC1CCCC1 (stereo not drawn) [rolipram, 4-[3-cyclopentyloxy 4-methoxyphenyl]-2-pyrrolidinone] | 6.10 | – | – | – |
| CCCCC[C@H](O)/C=C/[C@H]1[C@H](O)CC(=O)[C@@H]1C/C=C\CCCC(=O)O [PGE, prostaglandin E2] | – | increase | increased strikingly | – |
| 19-hydroxy PGE2 | – | increase | increased strikingly | concentration necessary to achieve similar effects to PGE ([3]; compared with PGE, Figures and Examples): higher concentration |
| CCCCOc1cc(CC2CNC(=O)N2)ccc1OC (stereo not drawn) [Ro-20-1724, 4-[3-butoxy-4-methoxybenzyl]-2-imidazolidinone] | 5.70 | – | – | – |
| Cn1c(=O)c2[nH]cnc2n(C)c1=O [theophylline] | – | – | – | times less effective than rolipram (type IV PDE; non-selective inhibitor compared with rolipram): 30 times |
